Values of other authors as cited in patent US20220257469A1, “PHARMACEUTICAL UNIT DOSE SYSTEMS FOR ORAL DRY SOLUTION AND SUSPENSION” (Brillian Pharma Inc., priority 2019, published 2022).

Settings: liquid suspension, in five days, not refrigerated

SMILES: O=C(O)[C@H]1/C(=C/CO)O[C@@H]2CC(=O)N21 [Clavulanic acid]
- loss of potency: 30-40%
